# Measured values taken from patent publication US10987342B2, “Methods and compositions for transdermal delivery of a non-sedative amount of dexmedetomidine” (Teikoku Pharma USA, Inc., priority 2013, dated 2021).
# Where two headings read alike, the source gives them in different places.
smiles,measurement,setting,value
"Cc1cccc([C@H](C)c2cnc[nH]2)c1C [dexmedetomidine, Dexmedetomidine]",solubility of dexmedetomidine,in Duro-Tak 87-2979,less than 2%
same,solubility of dexmedetomidine,in Duro-Tak 387/87-2353 (acid functionalized acrylate polymer),10-15%
same,solubility of dexmedetomidine,in hydroxyl functionalized acrylate polymer,less than 1%
same,solubility of dexmedetomidine,in levulinic acid,~60%
same,solubility of dexmedetomidine,in oleic acid,~40%
